Measurements as given in patent publication US10941138B2, “Quinoline and isoquinoline derivatives for treating pain and pain related conditions” (ESTEVE PHARMACEUTICALS, S.A., priority 2016, dated 2021).

Each compound was assayed against human α2δ-1 subunit of Cav2.2 calcium channel (Homo sapiens (Human), UniProt P54289) (assay: Binding assay to human α2δ-1 subunit of Cav2.2 calcium channel ([3H]-Gabapentin)). Settings: Table 1, human α2δ-1 enriched membranes, read-out: Ki (nM) alpha2delta Hum.
Sequence of human α2δ-1 subunit of Cav2.2 calcium channel (P54289 25-1103): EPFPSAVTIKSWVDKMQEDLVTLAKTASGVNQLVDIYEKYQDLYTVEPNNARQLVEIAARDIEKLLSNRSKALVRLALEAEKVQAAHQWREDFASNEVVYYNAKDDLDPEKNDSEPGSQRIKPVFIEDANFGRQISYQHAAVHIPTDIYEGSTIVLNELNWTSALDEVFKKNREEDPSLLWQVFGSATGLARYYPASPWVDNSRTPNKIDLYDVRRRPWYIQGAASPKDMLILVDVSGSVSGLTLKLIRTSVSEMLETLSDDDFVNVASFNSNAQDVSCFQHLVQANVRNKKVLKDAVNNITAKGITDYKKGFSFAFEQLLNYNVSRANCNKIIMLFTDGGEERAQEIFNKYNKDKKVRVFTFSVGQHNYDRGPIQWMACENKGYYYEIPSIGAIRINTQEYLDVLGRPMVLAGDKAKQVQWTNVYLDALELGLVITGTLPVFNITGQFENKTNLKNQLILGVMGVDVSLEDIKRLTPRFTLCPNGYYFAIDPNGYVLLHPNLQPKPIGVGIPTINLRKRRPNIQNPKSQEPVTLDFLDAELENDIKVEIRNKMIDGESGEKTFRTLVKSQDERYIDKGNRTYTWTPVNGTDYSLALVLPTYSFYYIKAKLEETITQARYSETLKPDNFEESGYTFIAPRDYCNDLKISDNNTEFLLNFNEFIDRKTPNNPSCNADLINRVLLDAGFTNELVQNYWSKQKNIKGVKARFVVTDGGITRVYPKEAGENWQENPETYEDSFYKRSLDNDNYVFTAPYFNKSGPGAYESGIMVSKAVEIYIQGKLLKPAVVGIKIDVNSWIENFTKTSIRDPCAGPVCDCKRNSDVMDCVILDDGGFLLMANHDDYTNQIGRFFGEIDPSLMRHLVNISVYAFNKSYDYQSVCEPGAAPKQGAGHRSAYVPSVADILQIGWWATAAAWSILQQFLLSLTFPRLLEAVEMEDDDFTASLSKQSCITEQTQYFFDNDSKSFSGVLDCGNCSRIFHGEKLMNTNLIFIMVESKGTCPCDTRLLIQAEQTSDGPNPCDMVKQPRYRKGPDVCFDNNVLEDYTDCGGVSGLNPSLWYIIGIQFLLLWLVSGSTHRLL
Description: Binding Assay to Human α2δ-1 Subunit of Cav2.2 Calcium Channel.
Human α2δ-1 enriched membranes (2.5 μg) were incubated with 15 nM of radiolabeled [3H]-Gabapentin in assay buffer containing Hepes-KOH 10 mM, pH 7.4.
NSB (non specific binding) was measured by adding 10 μM pregabalin. The binding of the test compound was measured at five different concentrations. After 60 min incubation at 27° C., binding reaction was terminated by filtering through Multiscreen GF/C (Millipore) presoaked in 0.5% polyethyleneimine in Vacuum Manifold Station, followed by 3 washes with ice-cold filtration buffer containing 50 mM Tris-HCl, pH 7.4. Filter plates were dried at 60° C. for 1 h and 30 μl of scintillation cocktail were added to each well before radioactivity reading.
(§1) Readings were performed in a Trilux 1450 Microbeta radioactive counter (Perkin Elmer).
Compound `CNCC[C@@H](Oc1cccc2ncccc12)c1ccc(F)s1` [Example 53, (R)-3-(5-fluorothiophen-2-yl)-N-methyl-3-(quinolin-5-yloxy)propan-1-amine] has a Ki of under 100 nM. `CNCCC(Oc1ccc2cnccc2c1)c1cccs1` (stereo not drawn) [Example 54, 3-(isoquinolin-6-yloxy)-N-methyl-3-(thiophen-2-yl)propan-1-amine] was tested, and the Ki was 500 to 3000 nM. With `CNCCC(Oc1cccc2cnccc12)c1ccsc1` (stereo not drawn) [Example 56, 3-(isoquinolin-5-yloxy)-N-methyl-3-(thiophen-3-yl)propan-1-amine] the Ki was 100 to 500 nM. `CNCCC(Oc1cccc2ccncc12)c1ccsc1` (stereo not drawn) [Example 58, 3-(isoquinolin-8-yloxy)-N-methyl-3-(thiophen-3-yl)propan-1-amine] was tested, and the Ki was 100 to 500 nM. `CNCC[C@@H](Oc1cccc2cnccc12)c1ccsc1` [Example 60, (R)-3-(isoquinolin-5-yloxy)-N-methyl-3-(thiophen-3-yl)propan-1-amine] gave a Ki of 100 to 500 nM. For `CNCC[C@@H](Oc1cccc2ccncc12)c1ccsc1` [Example 61, (R)-3-(isoquinolin-8-yloxy)-N-methyl-3-(thiophen-3-yl)propan-1-amine], the Ki was 100 to 500 nM. In the case of `CNCC[C@@H](Oc1cccc2ccnc(C)c12)c1cccs1` [Example 62, (R)-N-methyl-3-((1-methylisoquinolin-8-yl)oxy)-3-(thiophen-2-yl)propan-1-amine], the Ki was under 100 nM. For `CNCC[C@H](Oc1cccc2c(C)nccc12)c1cccs1` [Example 65, (S)-N-methyl-3-((1-methylisoquinolin-5-yl)oxy)-3-(thiophen-2-yl)propan-1-amine], the Ki was at least 3000 nM. Compound `CNCC[C@H](Oc1cccc2ncccc12)c1ccsc1` [Example 67, (S)-N-methyl-3-(quinolin-5-yloxy)-3-(thiophen-3-yl)propan-1-amine] has a Ki of 100 to 500 nM. `CNCC[C@H](Oc1cccc2cnccc12)c1ccsc1` [Example 68, (S)-3-(isoquinolin-5-yloxy)-N-methyl-3-(thiophen-3-yl)propan-1-amine] was tested, and the Ki was at least 3000 nM. `CNCC[C@H](Oc1cccc2ccncc12)c1ccsc1` [Example 69, (S)-3-(isoquinolin-8-yloxy)-N-methyl-3-(thiophen-3-yl)propan-1-amine] showed a Ki of at least 3000 nM. `CNCCC(Oc1cccc2cnccc12)c1nccs1` (stereo not drawn) [Example 71, 3-(isoquinolin-5-yloxy)-N-methyl-3-(thiazol-2-yl)propan-1-amine] was tested, and the Ki was 500 to 3000 nM. In the case of `CNCCC(Oc1cccc2ncccc12)c1nccs1` (stereo not drawn) [Example 72, N-methyl-3-(quinolin-5-yloxy)-3-(thiazol-2-yl)propan-1-amine], the Ki was 100 to 500 nM. `CNCCC(Oc1ccc2ccncc2c1)c1cccs1` (stereo not drawn) [Example 74, 3-(isoquinolin-7-yloxy)-N-methyl-3-(thiophen-2-yl)propan-1-amine] was tested, and the Ki was at least 3000 nM. `CNCC[C@H](Oc1cccc2ncccc12)c1ccc(Cl)s1` [Example 78, (S)-3-(5-Chlorothiophen-2-yl)-N-methyl-3-(quinolin-5-yloxy)propan-1-amine] was tested, and the Ki was 500 to 3000 nM. Compound `CNCC[C@@H](Oc1cccc2ncccc12)c1ccc(Cl)s1` [Example 79, (R)-3-(5-chlorothiophen-2-yl)-N-methyl-3-(quinolin-5-yloxy)propan-1-amine] has a Ki of under 100 nM. In the case of `CNCC[C@@H](Oc1cccc2ccncc12)c1ccc(F)s1` [Example 81, (R)-3-(5-fluorothiophen-2-yl)-3-(isoquinolin-8-yloxy)-N-methylpropan-1-amine], the Ki was 100 to 500 nM. `CNCC[C@H](Oc1cccc2cnccc12)c1sccc1F` [Example 82, (S)-3-(3-Fluorothiophen-2-yl)-3-(isoquinolin-5-yloxy)-N-methylpropan-1-amine] was tested, and the Ki was at least 3000 nM.

Same assay, conditions: Table 2, dual compounds, human α2δ-1 enriched membranes, read-out: Ki (nM) alpha2delta Hum
With `CNCC[C@@H](Oc1cccc2ncccc12)c1ccc(F)s1` [Example 53, (R)-3-(5-fluorothiophen-2-yl)-N-methyl-3-(quinolin-5-yloxy)propan-1-amine] the Ki was under 100 nM. With `CNCCC(Oc1ccc2cnccc2c1)c1cccs1` (stereo not drawn) [Example 54, 3-(isoquinolin-6-yloxy)-N-methyl-3-(thiophen-2-yl)propan-1-amine] the Ki was 500 to 3000 nM. For `CNCCC(Oc1cccc2cnccc12)c1ccsc1` (stereo not drawn) [Example 56, 3-(isoquinolin-5-yloxy)-N-methyl-3-(thiophen-3-yl)propan-1-amine], the Ki was 100 to 500 nM. Work on `CNCCC(Oc1cccc2ccncc12)c1ccsc1` (stereo not drawn) [Example 58, 3-(isoquinolin-8-yloxy)-N-methyl-3-(thiophen-3-yl)propan-1-amine] yielded a Ki of 100 to 500 nM. With `CNCC[C@@H](Oc1cccc2cnccc12)c1ccsc1` [Example 60, (R)-3-(isoquinolin-5-yloxy)-N-methyl-3-(thiophen-3-yl)propan-1-amine] the Ki was 100 to 500 nM. For `CNCC[C@@H](Oc1cccc2ccncc12)c1ccsc1` [Example 61, (R)-3-(isoquinolin-8-yloxy)-N-methyl-3-(thiophen-3-yl)propan-1-amine], the Ki was 100 to 500 nM. Compound `CNCC[C@@H](Oc1cccc2ccnc(C)c12)c1cccs1` [Example 62, (R)-N-methyl-3-((1-methylisoquinolin-8-yl)oxy)-3-(thiophen-2-yl)propan-1-amine] has a Ki of under 100 nM. Compound `CNCC[C@H](Oc1cccc2c(C)nccc12)c1cccs1` [Example 65, (S)-N-methyl-3-((1-methylisoquinolin-5-yl)oxy)-3-(thiophen-2-yl)propan-1-amine] has a Ki of at least 3000 nM. Compound `CNCC[C@H](Oc1cccc2ncccc12)c1ccsc1` [Example 67, (S)-N-methyl-3-(quinolin-5-yloxy)-3-(thiophen-3-yl)propan-1-amine] has a Ki of 100 to 500 nM. Compound `CNCC[C@H](Oc1cccc2cnccc12)c1ccsc1` [Example 68, (S)-3-(isoquinolin-5-yloxy)-N-methyl-3-(thiophen-3-yl)propan-1-amine] has a Ki of at least 3000 nM. In the case of `CNCC[C@H](Oc1cccc2ccncc12)c1ccsc1` [Example 69, (S)-3-(isoquinolin-8-yloxy)-N-methyl-3-(thiophen-3-yl)propan-1-amine], the Ki was at least 3000 nM. In the case of `CNCCC(Oc1cccc2cnccc12)c1nccs1` (stereo not drawn) [Example 71, 3-(isoquinolin-5-yloxy)-N-methyl-3-(thiazol-2-yl)propan-1-amine], the Ki was 500 to 3000 nM. In the case of `CNCCC(Oc1cccc2ncccc12)c1nccs1` (stereo not drawn) [Example 72, N-methyl-3-(quinolin-5-yloxy)-3-(thiazol-2-yl)propan-1-amine], the Ki was 100 to 500 nM. With `CNCCC(Oc1ccc2ccncc2c1)c1cccs1` (stereo not drawn) [Example 74, 3-(isoquinolin-7-yloxy)-N-methyl-3-(thiophen-2-yl)propan-1-amine] the Ki was at least 3000 nM. `CNCC[C@H](Oc1cccc2ncccc12)c1ccc(Cl)s1` [Example 78, (S)-3-(5-Chlorothiophen-2-yl)-N-methyl-3-(quinolin-5-yloxy)propan-1-amine] showed a Ki of 500 to 3000 nM. `CNCC[C@@H](Oc1cccc2ncccc12)c1ccc(Cl)s1` [Example 79, (R)-3-(5-chlorothiophen-2-yl)-N-methyl-3-(quinolin-5-yloxy)propan-1-amine] gave a Ki of under 100 nM. In the case of `CNCC[C@@H](Oc1cccc2ccncc12)c1ccc(F)s1` [Example 81, (R)-3-(5-fluorothiophen-2-yl)-3-(isoquinolin-8-yloxy)-N-methylpropan-1-amine], the Ki was 100 to 500 nM. Compound `CNCC[C@H](Oc1cccc2cnccc12)c1sccc1F` [Example 82, (S)-3-(3-Fluorothiophen-2-yl)-3-(isoquinolin-5-yloxy)-N-methylpropan-1-amine] has a Ki of at least 3000 nM.

The compounds below were run against human norepinephrine transporter (NET) (Homo sapiens (Human), UniProt P23975) (assay: Binding assay to human norepinephrine transporter (NET) ([3H]-Nisoxetin)). Settings: Table 2, dual compounds, human NET enriched membranes, read-out: Ki (nM) NET Hum.
Sequence of human norepinephrine transporter (NET) (P23975 whole entry): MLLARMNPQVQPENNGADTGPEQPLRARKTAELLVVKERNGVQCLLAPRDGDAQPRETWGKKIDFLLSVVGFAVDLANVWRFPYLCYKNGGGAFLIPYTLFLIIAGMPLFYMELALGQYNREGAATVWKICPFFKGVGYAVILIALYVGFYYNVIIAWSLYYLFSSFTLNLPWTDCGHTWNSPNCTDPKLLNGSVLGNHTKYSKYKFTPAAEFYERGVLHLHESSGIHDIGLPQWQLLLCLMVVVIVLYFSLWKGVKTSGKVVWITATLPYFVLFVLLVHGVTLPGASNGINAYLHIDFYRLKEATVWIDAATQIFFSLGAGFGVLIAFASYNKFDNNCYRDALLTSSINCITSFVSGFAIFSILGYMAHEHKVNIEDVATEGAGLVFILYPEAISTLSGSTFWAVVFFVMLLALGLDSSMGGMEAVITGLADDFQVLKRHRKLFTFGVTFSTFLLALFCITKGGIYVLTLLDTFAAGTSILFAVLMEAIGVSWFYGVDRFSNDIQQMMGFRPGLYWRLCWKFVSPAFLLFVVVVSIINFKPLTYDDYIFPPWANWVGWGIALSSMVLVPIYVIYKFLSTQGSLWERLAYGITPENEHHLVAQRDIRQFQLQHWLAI
Description: Binding Assay to Human Norepinephrine Transporter (NET).
Human norepinephrine transporter (NET) enriched membranes (5 μg) were incubated with 5 nM of radiolabeled [3H]-Nisoxetin in assay buffer containing 50 mM Tris-HCl, 120 mM NaCl, 5 mM KCl, pH 7.4.
NSB (non specific binding) was measured by adding desipramine 10 μM. The binding of the test compound was measured at five different concentrations. After 60 min incubation at 4° C., binding reaction was terminated by filtering through Multiscreen GF/C (Millipore) presoaked in 0.5% polyethyleneimine in Vacuum Manifold Station, followed by 3 washes with ice-cold filtration buffer containing 50 mM Tris-HCl, 0.9% NaCl, pH 7.4.
Filter plates were dried at 60° C. for 1 h and 30 μl of scintillation cocktail were added to each well before radioactivity reading.
as §1
`CNCC[C@@H](Oc1cccc2ncccc12)c1ccc(F)s1` [Example 53, (R)-3-(5-fluorothiophen-2-yl)-N-methyl-3-(quinolin-5-yloxy)propan-1-amine] gave a Ki of 100 to 500 nM. Compound `CNCCC(Oc1ccc2cnccc2c1)c1cccs1` (stereo not drawn) [Example 54, 3-(isoquinolin-6-yloxy)-N-methyl-3-(thiophen-2-yl)propan-1-amine] has a Ki of 100 to 500 nM. `CNCCC(Oc1cccc2cnccc12)c1ccsc1` (stereo not drawn) [Example 56, 3-(isoquinolin-5-yloxy)-N-methyl-3-(thiophen-3-yl)propan-1-amine] showed a Ki of under 100 nM. `CNCCC(Oc1cccc2ccncc12)c1ccsc1` (stereo not drawn) [Example 58, 3-(isoquinolin-8-yloxy)-N-methyl-3-(thiophen-3-yl)propan-1-amine] was tested, and the Ki was 500 to 1000 nM. Work on `CNCC[C@@H](Oc1cccc2cnccc12)c1ccsc1` [Example 60, (R)-3-(isoquinolin-5-yloxy)-N-methyl-3-(thiophen-3-yl)propan-1-amine] yielded a Ki of 100 to 500 nM. With `CNCC[C@@H](Oc1cccc2ccncc12)c1ccsc1` [Example 61, (R)-3-(isoquinolin-8-yloxy)-N-methyl-3-(thiophen-3-yl)propan-1-amine] the Ki was 100 to 500 nM. With `CNCC[C@@H](Oc1cccc2ccnc(C)c12)c1cccs1` [Example 62, (R)-N-methyl-3-((1-methylisoquinolin-8-yl)oxy)-3-(thiophen-2-yl)propan-1-amine] the Ki was 500 to 1000 nM. `CNCC[C@H](Oc1cccc2c(C)nccc12)c1cccs1` [Example 65, (S)-N-methyl-3-((1-methylisoquinolin-5-yl)oxy)-3-(thiophen-2-yl)propan-1-amine] showed a Ki of 100 to 500 nM. For `CNCC[C@H](Oc1cccc2ncccc12)c1ccsc1` [Example 67, (S)-N-methyl-3-(quinolin-5-yloxy)-3-(thiophen-3-yl)propan-1-amine], the Ki was 100 to 500 nM. With `CNCC[C@H](Oc1cccc2cnccc12)c1ccsc1` [Example 68, (S)-3-(isoquinolin-5-yloxy)-N-methyl-3-(thiophen-3-yl)propan-1-amine] the Ki was under 100 nM. Compound `CNCC[C@H](Oc1cccc2ccncc12)c1ccsc1` [Example 69, (S)-3-(isoquinolin-8-yloxy)-N-methyl-3-(thiophen-3-yl)propan-1-amine] has a Ki of 500 to 1000 nM. With `CNCCC(Oc1cccc2cnccc12)c1nccs1` (stereo not drawn) [Example 71, 3-(isoquinolin-5-yloxy)-N-methyl-3-(thiazol-2-yl)propan-1-amine] the Ki was 100 to 500 nM. Compound `CNCCC(Oc1cccc2ncccc12)c1nccs1` (stereo not drawn) [Example 72, N-methyl-3-(quinolin-5-yloxy)-3-(thiazol-2-yl)propan-1-amine] has a Ki of 500 to 1000 nM. `CNCCC(Oc1ccc2ccncc2c1)c1cccs1` (stereo not drawn) [Example 74, 3-(isoquinolin-7-yloxy)-N-methyl-3-(thiophen-2-yl)propan-1-amine] was tested, and the Ki was 100 to 500 nM. `CNCC[C@H](Oc1cccc2ncccc12)c1ccc(Cl)s1` [Example 78, (S)-3-(5-Chlorothiophen-2-yl)-N-methyl-3-(quinolin-5-yloxy)propan-1-amine] showed a Ki of 100 to 500 nM. Work on `CNCC[C@@H](Oc1cccc2ncccc12)c1ccc(Cl)s1` [Example 79, (R)-3-(5-chlorothiophen-2-yl)-N-methyl-3-(quinolin-5-yloxy)propan-1-amine] yielded a Ki of 500 to 1000 nM. `CNCC[C@@H](Oc1cccc2ccncc12)c1ccc(F)s1` [Example 81, (R)-3-(5-fluorothiophen-2-yl)-3-(isoquinolin-8-yloxy)-N-methylpropan-1-amine] showed a Ki of 100 to 500 nM. `CNCC[C@H](Oc1cccc2cnccc12)c1sccc1F` [Example 82, (S)-3-(3-Fluorothiophen-2-yl)-3-(isoquinolin-5-yloxy)-N-methylpropan-1-amine] gave a Ki of under 100 nM.
